Measurements published in US12195482B1 (Arcus Biosciences, Inc., priority 2022, dated 2025).
pIC50: −log10 of the molar value.

Legend:
p-AXL = target: T1, p-AXL (Homo sapiens, UniProt P30530); test: Axl phosphorylation inhibition ELISA in HEK293T cells transfected with NanoLuc-tagged AXL; assay type: cell-based; settings: 1 h compound incubation, media (OptiMEM)
T1 construct: expressed in transfected cells; host or cells: HEK293T
T1 sequence (P30530 26-894): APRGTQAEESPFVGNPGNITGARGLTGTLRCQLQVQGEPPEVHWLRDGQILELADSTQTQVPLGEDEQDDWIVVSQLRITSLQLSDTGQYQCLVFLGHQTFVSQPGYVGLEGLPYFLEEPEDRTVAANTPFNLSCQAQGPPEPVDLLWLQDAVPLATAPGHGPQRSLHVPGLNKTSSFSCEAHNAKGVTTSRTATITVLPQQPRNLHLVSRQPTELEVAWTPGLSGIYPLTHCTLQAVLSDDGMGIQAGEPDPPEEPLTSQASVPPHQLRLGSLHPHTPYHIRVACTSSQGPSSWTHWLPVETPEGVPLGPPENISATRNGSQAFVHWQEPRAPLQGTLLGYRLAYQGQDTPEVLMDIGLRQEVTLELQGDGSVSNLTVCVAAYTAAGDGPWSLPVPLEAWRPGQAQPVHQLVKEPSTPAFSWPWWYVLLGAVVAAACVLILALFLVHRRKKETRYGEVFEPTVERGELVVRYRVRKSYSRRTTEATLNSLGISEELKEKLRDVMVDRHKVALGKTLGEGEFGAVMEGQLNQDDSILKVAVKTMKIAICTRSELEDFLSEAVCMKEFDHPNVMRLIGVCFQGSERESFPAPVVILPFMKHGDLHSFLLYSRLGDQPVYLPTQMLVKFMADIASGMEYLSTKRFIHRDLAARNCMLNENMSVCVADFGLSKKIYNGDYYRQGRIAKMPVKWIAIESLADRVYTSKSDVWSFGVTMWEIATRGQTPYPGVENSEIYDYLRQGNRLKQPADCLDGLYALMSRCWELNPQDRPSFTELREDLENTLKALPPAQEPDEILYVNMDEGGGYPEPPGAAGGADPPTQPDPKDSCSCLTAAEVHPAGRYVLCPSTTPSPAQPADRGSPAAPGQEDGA
Method in brief: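 Phospho-AXL detected by luminescence of NanoLuc tag after capture of cell lysate on biotinylated anti-phospho-tyrosine mAb plates (2 h). Lysates came from transiently transfected HEK293T cells treated 1 h at 37° C with serial 2-fold dilutions (22 points). IC50 by standard 4-parameter logistic fitting.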

Axl = target: T2, Axl (Homo sapiens, UniProt P30530); test: Biochemical potency, HTRF KinEASE-TK kinase assay; design: purchased Invitrogen; settings: 5 nM AXL, 700 μM ATP
T2 sequence (P30530 26-894): T1 sequence (P30530 26-894)
Method in brief: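 HTRF 665/620 readout after a 2 h RT kinase reaction (final 700 μM ATP, 800 nM biotinylated TK substrate, 1% DMSO, HEPES pH 7.4 buffer) gave percent activity. Final enzyme was 5 nM for AXL, 1 nM for TYRO3 or MER, each preincubated 1 h with compound.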

Row | Compound | pIC50 (p-AXL) | pIC50 (Axl)
1 | COCCOc1cccnc1-c1ccc(-c2c[nH]c3ncc(-c4ccc5c(c4)CC[C@@H](N4C6COCC4C6)CC5)cc23)cc1 [Example 3, 6-[(7S)-2-(3-{4-[3-(2-Methoxyethoxy)pyridin-2-yl]phenyl}-1H-pyrrolo[2,3-b]pyridin-5-yl)-6,7,8,9-tetrahydro-5H-benzo[7]annulen-7-yl]-3-oxa-6-azabicyclo[3.1.1]heptane] | > 7.00 | > 7.00
2 | Cc1nccnc1-c1ccc(-c2c[nH]c3ncc(-c4ccc5c(c4)CC[C@@H](N4C6COCC4C6)CC5)cc23)nc1 [Example 54, 6-[(7S)-2-{3-[5-(3-Methylpyrazin-2-yl)pyridin-2-yl]-1H-pyrrolo[2,3-b]pyridin-5-yl}-6,7,8,9-tetrahydro-5H-benzo[7]annulen-7-yl]-3-oxa-6-azabicyclo[3.1.1]heptane] | > 7.00 | > 7.00
3 | Clc1cc(-c2c[nH]c3ncc(-c4ccc5c(c4)CC[C@@H](N4C6COCC4C6)CC5)cc23)ccc1-c1ccccn1 [Example 44, 6-[(7S)-2-{3-[3-Chloro-4-(pyridin-2-yl)phenyl]-1H-pyrrolo[2,3-b]pyridin-5-yl}-6,7,8,9-tetrahydro-5H-benzo[7]annulen-7-yl]-3-oxa-6-azabicyclo[3.1.1]heptane] | 6.00 to 7.00 | > 7.00
4 | CS(=O)(=O)c1ccccc1-c1ccc(-c2c[nH]c3ncc(-c4ccc5c(c4)CC[C@@H](N4C6COCC4C6)CC5)cc23)cc1 [Example 93, 6-[(7S)-2-(3-{2′-Methanesulfonyl-[1,1′-biphenyl]-4-yl}-1H-pyrrolo[2,3-b]pyridin-5-yl)-6,7,8,9-tetrahydro-5H-benzo[7]annulen-7-yl]-3-oxa-6-azabicyclo[3.1.1]heptane] | 6.00 to 7.00 | > 7.00
5 | C[C@@H]1CCCN1[C@@]1(C)CCc2ccc(-c3cnc4[nH]nc(-c5ccc(-c6nccs6)cc5)c4c3)cc2CC1 [Example 91, 2-(4-{5-[(7S)-7-Methyl-7-[(2R)-2-methylpyrrolidin-1-yl]-6,7,8,9-tetrahydro-5H-benzo[7]annulen-2-yl]-2H-pyrazolo[3,4-b]pyridin-3-yl}phenyl)-1,3-thiazole] | 6.00 to 7.00 | > 7.00
6 | CN(C)C(=O)c1ccccc1-c1ccc(-c2c[nH]c3ncc(-c4ccc5c(c4)CC[C@@H](N4C6COCC4C6)CC5)cc23)cc1 [Example 92, N,N-Dimethyl-4′-{5-[(7S)-7-{3-oxa-6-azabicyclo[3.1.1]heptan-6-yl}-6,7,8,9-tetrahydro-5H-benzo[7]annulen-2-yl]-1H-pyrrolo[2,3-b]pyridin-3-yl}-[1,1′-biphenyl]-2-carboxamide] | > 7.00 | > 7.00
7 | c1ccc(-c2ccc(-c3c[nH]c4ncc(-c5ccc6c(c5)CC[C@@H](N5C[C@@H]7C[C@H]5CO7)CC6)cc34)cc2)nc1 [Example 33, (1S,4S)-5-[(7S)-3-[3-(4-Pyridin-2-ylphenyl)-1H-pyrrolo[2,3-b]pyridin-5-yl]-6,7,8,9-tetrahydro-5H-benzo[7]annulen-7-yl]-2-oxa-5-azabicyclo[2.2.1]heptane] | 6.00 to 7.00 | > 7.00
8 | N#Cc1cccnc1-c1ccc(-c2n[nH]c3ncc(-c4ccc5c(c4)CC[C@@H](N4C6COCC4C6)CC5)cc23)cc1 [Example 52, 2-(4-{5-[(7S)-7-{3-Oxa-6-azabicyclo[3.1.1]heptan-6-yl}-6,7,8,9-tetrahydro-5H-benzo[7]annulen-2-yl]-1H-pyrazolo[3,4-b]pyridin-3-yl}phenyl)pyridine-3-carbonitrile] | > 7.00 | > 7.00
9 | Cc1cc(C)c(-c2ccc(-c3c[nH]c4ncc(-c5ccc6c(c5)CC[C@@H](N5C7COCC5C7)CC6)cc34)cc2)nn1 [Example 80, 6-[(7S)-2-{3-[4-(4,6-Dimethylpyridazin-3-yl)phenyl]-1H-pyrrolo[2,3-b]pyridin-5-yl}-6,7,8,9-tetrahydro-5H-benzo[7]annulen-7-yl]-3-oxa-6-azabicyclo[3.1.1]heptane] | > 7.00 | > 7.00
10 | Cc1cnc(C)c(-c2ccc(-c3c[nH]c4ncc(-c5ccc6c(c5)CC[C@@](C)(N5CCC[C@H]5C)CC6)cc34)cc2)n1 [Example 58, 2,5-Dimethyl-3-(4-{5-[(7S)-7-methyl-7-[(2R)-2-methylpyrrolidin-1-yl]-6,7,8,9-tetrahydro-5H-benzo[7]annulen-2-yl]-1H-pyrrolo[2,3-b]pyridin-3-yl}phenyl)pyrazine] | > 7.00 | > 7.00
11 | c1cc(-c2ccc(-c3c[nH]c4ncc(-c5ccc6c(c5)CC[C@@H](N5C7COCC5C7)CC6)cc34)cc2)ccn1 [Example 41, 6-[(7S)-2-{3-[4-(Pyridin-4-yl)phenyl]-1H-pyrrolo[2,3-b]pyridin-5-yl}-6,7,8,9-tetrahydro-5H-benzo[7]annulen-7-yl]-3-oxa-6-azabicyclo[3.1.1]heptane] | 6.00 to 7.00 | > 7.00
12 | Cc1cnc(-c2ccc(-c3c[nH]c4ncc(-c5ccc6c(c5)CC[C@@H](N5CCCC5)CC6)cc34)cc2)c(C)n1 [Example 59, 3,5-Dimethyl-2-(4-{5-[(7S)-7-(pyrrolidin-1-yl)-6,7,8,9-tetrahydro-5H-benzo[7]annulen-2-yl]-1H-pyrrolo[2,3-b]pyridin-3-yl}phenyl)pyrazine] | 6.00 to 7.00 | > 7.00
13 | N#Cc1cccnc1-c1ccc(-c2c[nH]c3ncc(-c4ccc5c(c4)CC[C@@H](N4C6COCC4C6)CC5)cc23)cc1 [Example 46, 2-(4-{5-[(7S)-7-{3-Oxa-6-azabicyclo[3.1.1]heptan-6-yl}-6,7,8,9-tetrahydro-5H-benzo[7]annulen-2-yl]-1H-pyrrolo[2,3-b]pyridin-3-yl}phenyl)pyridine-3-carbonitrile] | > 7.00 | > 7.00
14 | CC(C)(C#N)c1cccnc1-c1ccc(-c2n[nH]c3ncc(-c4ccc5c(c4)CC[C@@H](N4C6COCC4C6)CC5)cc23)cc1 [Example 85, 2-Methyl-2-[2-[4-[5-[(7S)-7-(3-oxa-6-azabicyclo[3.1.1]heptan-6-yl)-6,7,8,9-tetrahydro-5H-benzo[7]annulen-3-yl]-1H-pyrazolo[3,4-b]pyridine-3-yl]phenyl]pyridine-3-yl]propanenitrile] | > 7.00 | > 7.00
15 | Cc1cnc(C)c(-c2ccc(-c3c[nH]c4ncc(-c5ccc6c(c5)CC[C@@H](N5C7COCC5C7)CC6)cc34)cc2)n1 [Example 53, 6-[(7S)-2-{3-[4-(3,6-Dimethylpyrazin-2-yl)phenyl]-1H-pyrrolo[2,3-b]pyridin-5-yl}-6,7,8,9-tetrahydro-5H-benzo[7]annulen-7-yl]-3-oxa-6-azabicyclo[3.1.1]heptane] | > 7.00 | > 7.00
16 | COc1ccnc(-c2ccc(-c3c[nH]c4ncc(-c5ccc6c(c5)CC[C@@H](N5C7COCC5C7)CC6)cc34)cc2)c1C [Example 86, 6-[(7S)-3-[3-[4-(4-Methoxy-3-methylpyridin-2-yl)phenyl]-1H-pyrrolo[2,3-b]pyridin-5-yl]-6,7,8,9-tetrahydro-5H-benzo[7]annulen-7-yl]-3-oxa-6-azabicyclo[3.1.1]heptane] | 6.00 to 7.00 | > 7.00
17 | Cc1ccnnc1-c1ccc(-c2c[nH]c3ncc(-c4ccc5c(c4)CC[C@@](C)(N4CCC[C@H]4C)CC5)cc23)cc1 [Example 51, 4-methyl-3-(4-{5-[(7S)-7-Methyl-7-[(2R)-2-methylpyrrolidin-1-yl]-6,7,8,9-tetrahydro-5H-benzo[7]annulen-2-yl]-1H-pyrrolo[2,3-b]pyridin-3-yl}phenyl)pyridazine] | > 7.00 | > 7.00
18 | Cc1cc(C)c(-c2ccc(-c3n[nH]c4ncc(-c5ccc6c(c5)CC[C@@H](N5C7COCC5C7)CC6)cc34)cc2)nn1 [Example 77, 6-[(7S)-2-{3-[4-(4,6-Dimethylpyridazin-3-yl)phenyl]-1H-pyrazolo[3,4-b]pyridin-5-yl}-6,7,8,9-tetrahydro-5H-benzo[7]annulen-7-yl]-3-oxa-6-azabicyclo[3.1.1]heptane] | > 7.00 | > 7.00
19 | Cc1cc(C)c(-c2ccc(-c3n[nH]c4ncc(-c5ccc6c(c5)CC[C@@](C)(N5CCC[C@H]5C)CC6)cc34)cc2)nn1 [Example 78, 4,6-Dimethyl-3-(4-{5-[(7S)-7-methyl-7-[(2R)-2-methylpyrrolidin-1-yl]-6,7,8,9-tetrahydro-5H-benzo[7]annulen-2-yl]-1H-pyrazolo[3,4-b]pyridin-3-yl}phenyl)pyridazine] | > 7.00 | > 7.00
